In ChEMBL document CHEMBL4177616, “Potent anti-melanogenic activity and favorable toxicity profile of selected 4-phenyl hydroxycoumarins in the zebrafish model and the computational molecular modeling studies” (Bioorg Med Chem, 2017):
Calls of active or inactive are those of the source. The rule behind the calls is not given here.

Experiments:
Danio rerio [1] = species on record: Danio rerio; assay: Toxicity in wild type zebrafish embryos assessed as teratogenic embryo at 5 ug/ml treated for 96 hrs post fertilization starting from 6 hrs post fertilization by inverted microscopic analysis relative to control; format: organism-based; settings: in vivo
Melanocyte [2] = assay: Cytotoxicity against wild type zebrafish embryo melanocytes assessed as small and rounded cells at 12.5 ug/ml treated for 72 hrs post fertilization starting from 6 to 24 hrs post fertilization; format: cell-based, Danio rerio
Danio rerio [3] = species on record: Danio rerio; assay: Anti-melanogenic activity in wild type zebrafish 24 hrs post fertilization embryos assessed as decrease in body pigmentation at 5 to 25 ug/ml after 48 hrs; format: functional, organism-based
Danio rerio [4] = species on record: Danio rerio; assay: Toxicity in wild type zebrafish embryos assessed as head malformation at 25 ug/ml treated for 96 hrs post fertilization starting from 6 hrs post fertilization by inverted microscopic analysis relative to control; format: organism-based; settings: in vivo
Danio rerio [5] = assay: Toxicity in wild type zebrafish embryos assessed as pericardial edema at 10 ug/ml treated for 96 hrs post fertilization starting from 6 hrs post fertilization by inverted microscopic analysis relative to control; format: organism-based; settings: in vivo
Neutrophil = assay: Cytotoxicity against mpx:GFP transgenic zebrafish 24 hrs post fertilization embryo neutrophils assessed as loss in neutrophil at 25 ug/ml relative to control; format: cell-based, Danio rerio
Danio rerio [6] = species on record: Danio rerio; assay: Toxicity in wild type zebrafish embryos assessed as skeletal deformities at 10 ug/ml treated for 96 hrs post fertilization starting from 6 hrs post fertilization by inverted microscopic analysis relative to control; format: organism-based; settings: in vivo
Danio rerio [7] = species on record: Danio rerio; assay: Toxicity in wild type zebrafish embryos assessed as heart beat at 10 ug/ml treated for 96 hrs post fertilization starting from 6 hrs post fertilization by inverted microscopic analysis relative to control; format: organism-based; settings: in vivo
Danio rerio [8] = species on record: Danio rerio; assay: Toxicity in wild type zebrafish embryos assessed as growth retardation at 10 ug/ml treated for 96 hrs post fertilization starting from 6 hrs post fertilization by inverted microscopic analysis relative to control; format: organism-based; settings: in vivo
Danio rerio [9] = species on record: Danio rerio; assay: Toxicity in wild type zebrafish embryos assessed as blood circulation at 10 ug/ml treated for 96 hrs post fertilization starting from 6 hrs post fertilization by inverted microscopic analysis relative to control; format: organism-based; settings: in vivo
Danio rerio [10] = species on record: Danio rerio; assay: Toxicity in wild type zebrafish embryos assessed as eyes at 5 ug/ml treated for 96 hrs post fertilization starting from 6 hrs post fertilization by inverted microscopic analysis relative to control; format: organism-based; settings: in vivo
Danio rerio [11] = species on record: Danio rerio; assay: Toxicity in wild type zebrafish embryos assessed as notochord at 20 ug/ml treated for 96 hrs post fertilization starting from 6 hrs post fertilization by inverted microscopic analysis relative to control; format: organism-based; settings: in vivo
Danio rerio [12] = species on record: Danio rerio; assay: Toxicity in wild type zebrafish embryos assessed as otoliths at 20 ug/ml treated for 96 hrs post fertilization starting from 6 hrs post fertilization by inverted microscopic analysis relative to control; format: organism-based; settings: in vivo
[13] = Toxicity in wild type zebrafish embryos assessed as dead embryo at 5 ug/ml treated for 96 hrs post fertilization starting from 6 hrs post fertilization by inverted microscopic analysis relative to control; format: organism-based, Danio rerio; settings: in vivo, read-out: Activity
Danio rerio [14] = species on record: Danio rerio; assay: Toxicity in wild type zebrafish embryos assessed as unhatched embryo at 10 ug/ml treated for 96 hrs post fertilization starting from 6 hrs post fertilization by inverted microscopic analysis relative to control; format: organism-based; settings: in vivo
Melanocyte [15] = assay: Cytotoxicity against wild type zebrafish embryo melanocytes assessed as change in morphology; format: cell-based, Danio rerio
Danio rerio [16] = species on record: Danio rerio; assay: Toxicity in wild type zebrafish embryos assessed as unhatched embryo at 5 ug/ml treated for 96 hrs post fertilization starting from 6 hrs post fertilization by inverted microscopic analysis relative to control; format: organism-based; settings: in vivo
Danio rerio [17] = species on record: Danio rerio; assay: Toxicity in wild type zebrafish embryos assessed as teratogenic embryo at 25 ug/ml treated for 96 hrs post fertilization starting from 6 hrs post fertilization by inverted microscopic analysis relative to control; format: organism-based; settings: in vivo
Melanocyte [18] = assay: Cytotoxicity against wild type zebrafish embryo melanocytes assessed as barely visible cells at 12.5 ug/ml treated for 72 hrs post fertilization starting from 6 to 24 hrs post fertilization; format: cell-based, Danio rerio
Danio rerio [19] = species on record: Danio rerio; assay: Toxicity in wild type zebrafish embryos assessed as eyes at 20 ug/ml treated for 96 hrs post fertilization starting from 6 hrs post fertilization by inverted microscopic analysis relative to control; format: organism-based; settings: in vivo
Danio rerio [20] = species on record: Danio rerio; assay: Toxicity in wild type zebrafish embryos assessed as skeletal deformities at 5 ug/ml treated for 96 hrs post fertilization starting from 6 hrs post fertilization by inverted microscopic analysis relative to control; format: organism-based; settings: in vivo
[21] = Toxicity in wild type zebrafish embryos assessed as dead embryo at 20 ug/ml treated for 96 hrs post fertilization starting from 6 hrs post fertilization by inverted microscopic analysis relative to control; format: organism-based, Danio rerio; settings: in vivo, read-out: Activity
Danio rerio [22] = species on record: Danio rerio; assay: Toxicity in wild type zebrafish embryos assessed as otoliths at 10 ug/ml treated for 96 hrs post fertilization starting from 6 hrs post fertilization by inverted microscopic analysis relative to control; format: organism-based; settings: in vivo
Danio rerio [23] = species on record: Danio rerio; assay: Toxicity in wild type zebrafish embryos assessed as blood circulation at 20 ug/ml treated for 96 hrs post fertilization starting from 6 hrs post fertilization by inverted microscopic analysis relative to control; format: organism-based; settings: in vivo
Danio rerio [24] = species on record: Danio rerio; assay: Toxicity in wild type zebrafish embryos assessed as eyes at 25 ug/ml treated for 96 hrs post fertilization starting from 6 hrs post fertilization by inverted microscopic analysis relative to control; format: organism-based; settings: in vivo
Melanocyte [25] = assay: Anti-melanogenic activity in wild type zebrafish embryo melanocytes assessed as decrease in pigmentation at 2.5 mg/ml treated for 72 hrs post fertilization starting from 6 to 24 hrs post fertilization; format: functional, cell-based; settings: Danio rerio
Danio rerio [26] = assay: Toxicity in wild type zebrafish embryos assessed as yolk edema at 25 ug/ml treated for 96 hrs post fertilization starting from 6 hrs post fertilization by inverted microscopic analysis relative to control; format: organism-based; settings: in vivo
Danio rerio [27] = species on record: Danio rerio; assay: Toxicity in wild type zebrafish embryos assessed as normal embryo at 25 ug/ml treated for 96 hrs post fertilization starting from 6 hrs post fertilization by inverted microscopic analysis relative to control; format: organism-based; settings: in vivo
Danio rerio [28] = species on record: Danio rerio; assay: Toxicity in wild type zebrafish embryos assessed as skeletal deformities at 25 ug/ml treated for 96 hrs post fertilization starting from 6 hrs post fertilization by inverted microscopic analysis relative to control; format: organism-based; settings: in vivo
Danio rerio [29] = species on record: Danio rerio; assay: Toxicity in wild type zebrafish embryos assessed as growth retardation at 5 ug/ml treated for 96 hrs post fertilization starting from 6 hrs post fertilization by inverted microscopic analysis relative to control; format: organism-based; settings: in vivo
Danio rerio [30] = species on record: Danio rerio; assay: Toxicity in wild type zebrafish embryos assessed as heart beat at 25 ug/ml treated for 96 hrs post fertilization starting from 6 hrs post fertilization by inverted microscopic analysis relative to control; format: organism-based; settings: in vivo
Danio rerio [31] = species on record: Danio rerio; assay: Toxicity in wild type zebrafish embryos assessed as otoliths at 25 ug/ml treated for 96 hrs post fertilization starting from 6 hrs post fertilization by inverted microscopic analysis relative to control; format: organism-based; settings: in vivo
Danio rerio [32] = species on record: Danio rerio; assay: Toxicity in wild type zebrafish embryos assessed as unhatched embryo at 20 ug/ml treated for 96 hrs post fertilization starting from 6 hrs post fertilization by inverted microscopic analysis relative to control; format: organism-based; settings: in vivo
[33] = Toxicity in wild type zebrafish embryos assessed as dead embryo at 50 ug/ml treated for 96 hrs post fertilization starting from 6 hrs post fertilization by inverted microscopic analysis relative to control; format: organism-based, Danio rerio; settings: in vivo, read-out: Activity
Danio rerio [34] = species on record: Danio rerio; assay: Toxicity in wild type zebrafish embryos assessed as normal embryo at 10 ug/ml treated for 96 hrs post fertilization starting from 6 hrs post fertilization by inverted microscopic analysis relative to control; format: organism-based; settings: in vivo
Danio rerio [35] = assay: Toxicity in wild type zebrafish embryos assessed as pericardial edema at 5 ug/ml treated for 96 hrs post fertilization starting from 6 hrs post fertilization by inverted microscopic analysis relative to control; format: organism-based; settings: in vivo
Danio rerio [36] = species on record: Danio rerio; assay: Toxicity in wild type zebrafish embryos assessed as growth retardation at 25 ug/ml treated for 96 hrs post fertilization starting from 6 hrs post fertilization by inverted microscopic analysis relative to control; format: organism-based; settings: in vivo
Danio rerio [37] = species on record: Danio rerio; assay: Toxicity in wild type zebrafish embryos assessed as heart beat at 20 ug/ml treated for 96 hrs post fertilization starting from 6 hrs post fertilization by inverted microscopic analysis relative to control; format: organism-based; settings: in vivo

Row | Structure (SMILES) | Activity (Danio rerio [1]) [%] | Activity (Melanocyte [2]) | Activity (Danio rerio [3]) | Activity (Danio rerio [4]) [%] | Activity (Danio rerio [5]) [%] | Activity (Neutrophil) | Activity (Danio rerio [6]) [%] | Activity (Danio rerio [7]) [%] | Activity (Danio rerio [8]) [%] | Activity (Danio rerio [9]) [%] | Activity (Danio rerio [10]) [%] | Activity (Melanocyte [15]) | Activity (Danio rerio [17]) [%] | Activity (Melanocyte [18]) | Activity (Danio rerio [24]) [%] | Activity (Danio rerio [26]) [%] | Activity (Danio rerio [27]) [%] | Activity (Danio rerio [30]) [%] | Activity (Danio rerio [31]) [%] | Activity (Danio rerio [36]) [%] | further results
1 | O=c1cc(-c2ccccc2)c2ccc(O)cc2o1 | 0 | Non-Toxic | Active | 0 | 0 | Non-Toxic | 0 | 0 | 0 | 0 | 0 | Dose-dependent effect and Tde | 0 | Non-Toxic | 0 | 0 | 100 | 0 | 0 | 0 | Activity (Danio rerio [11]): 0%; Activity (Danio rerio [12]): 0%; mortality at 5 ug/ml [13]: 0%; Activity (Danio rerio [14]): 0%; Activity (Danio rerio [16]): 0%; Activity (Danio rerio [19]): 0%; Activity (Danio rerio [20]): 0%; mortality at 20 ug/ml [21]: 0%; Activity (Danio rerio [22]): 0%; Activity (Danio rerio [23]): 0%; Activity (Melanocyte [25]): Active; Activity (Danio rerio [28]): 0%; Activity (Danio rerio [29]): 0%; Activity (Danio rerio [32]): 0%; mortality at 50 ug/ml [33]: 0%; Activity (Danio rerio [34]): 100%; Activity (Danio rerio [35]): 0%; Activity (Danio rerio [37]): 0%
2 | O=c1cc(-c2ccccc2)c2c(O)cc(O)cc2o1 | 0 | Non-Toxic | Active | 0 | 0 | Non-Toxic | 0 | 0 | 0 | 0 | 0 | Dose-dependent effect and Tde | 0 | Non-Toxic | 0 | 0 | 100 | 0 | 0 | 0 | Activity (Danio rerio [11]): 0%; Activity (Danio rerio [12]): 0%; mortality at 5 ug/ml [13]: 0%; Activity (Danio rerio [14]): 0%; Activity (Danio rerio [16]): 0%; Activity (Danio rerio [19]): 0%; Activity (Danio rerio [20]): 0%; mortality at 20 ug/ml [21]: 0%; Activity (Danio rerio [22]): 0%; Activity (Danio rerio [23]): 0%; Activity (Melanocyte [25]): Active; Activity (Danio rerio [28]): 0%; Activity (Danio rerio [29]): 0%; Activity (Danio rerio [32]): 0%; mortality at 50 ug/ml [33]: 0%; Activity (Danio rerio [34]): 100%; Activity (Danio rerio [35]): 0%; Activity (Danio rerio [37]): 0%
3 | O=c1cc(CO)occ1O [KOJIC ACID] | – | Non-Toxic | – | 0 | – | Non-Toxic | – | – | – | – | – | Dose-dependent effect and Tde | 0 | Non-Toxic | 0 | 0 | 100 | 0 | 0 | 0 | Activity (Melanocyte [25]): Active; Activity (Danio rerio [28]): 0%
4 | Oc1ccc(O)cc1 [HYDROQUINONE] | 100 | Non-Toxic | Active | – | 100 | 30% | 90 | 90 | 80 | 90 | 0 | Dose-dependent effect and Tde | 6.7 | Non-Toxic | 100 | 100 | 0 | 100 | 100 | 100 | Activity (Danio rerio [11]): 0%; Activity (Danio rerio [12]): 100%; mortality at 5 ug/ml [13]: 0%; Activity (Danio rerio [14]): 0%; Activity (Danio rerio [16]): 0%; Activity (Danio rerio [19]): 100%; Activity (Danio rerio [20]): 0%; mortality at 20 ug/ml [21]: 70%; Activity (Danio rerio [22]): 80%; Activity (Danio rerio [23]): 100%; Activity (Danio rerio [29]): 0%; Activity (Danio rerio [32]): 100%; mortality at 50 ug/ml [33]: 100%; Activity (Danio rerio [34]): 0%; Activity (Danio rerio [35]): 71.7%; Activity (Danio rerio [37]): 100%
